Where two headings read alike, the source gives them in different places.
Key:
[1] = system: patients with mesothelioma; experiment: Phase I clinical study, anti-tumor activity (RECIST 1.1, Kaplan-Meier PFS) by merlin status; assay type: in vivo, human
Source text: A multi-part, Phase I study was designed to determine the maximum tolerated dose (MTD), safety, tolerability, pharmacokinetics (PK), pharmacodynamics (PD), and anti-tumor activity of Compound A in patients with advanced solid tumors. Part 1 of the study identified the MTD using a dose escalation procedure, and is described herein. Parts 2-3 are ongoing. Part 2 further explores the safety and tolerability of Compound A at or below the MTD, and Part 3 evaluates the pharmacodynamics of Compound A at doses at and below the MTD. Part 4 was not opened for patient accrual at the time of this summary and will explore the safety, tolerability, pharmacokinetics and clinical activity of Compound A in patients with recurrent glioblastoma multiforme. Part 5 was not opened for patient accrual at the time of this summary and will explore the pharmacokinetics of Compound A over several weeks of administration. Patients with mesothelioma were eligible to participate, e.g, in Part 1, of the study. Patients with mesothelioma were eligible to participate in Parts 1-3 of the study at the time the data below were collected.
Patients 18 years old with advanced solid tumors with histologically or cytologically confirmed diagnosis of a solid tumor malignancy that was not responsive to accepted standard therapies or for which there is no standard or curative therapy were eligible. All patients provided signed informed consent. […] In Parts 2-3 of the study, patients with tumors reported in the literature to overexpress FAK that are not responsive to accepted standard therapies or for which there were no standard or curative therapies were included. Subjects in Part 3 were also required to have solid tumors amenable to biopsy.
Patients with an active gastrointestinal disease known to interfere with the pharmacokinetics of drugs or prior resection of the small intestine were ineligible. Other exclusion criteria included unresolved toxicity>Grade 1 from previous anticancer therapy except alopecia, QTcF interval>450 msecs in males (470 in females) or congenital long QT syndrome, history of acute coronary syndromes, Class II-IV heart failure as defined by the New York Heart Association, symptomatic or untreated brain metastases, primary malignancy of the central nervous system (in Parts 1-3), nursing females, consumption of dietary substances or prohibited medications as defined in the protocol, or any serious and/or unstable pre-existing medical, psychiatric, or other condition that could interfere with subject safety or obtaining informed consent.
Measurements to evaluate safety included weight, heart rate, blood pressure, temperature, clinical laboratory tests, 12-lead ECG, and neurologic and physical evaluation. Adverse events were assessed throughout the study using the CTCAE v4.0, Common Terminology Criteria for Adverse Events (CTCAE) Version 4.0, US Department of Health and Human Services, National Institutes of Health, National Cancer Institute, May 2009.
Disease assessment was performed at screening and every 6 weeks after the start of dosing. Response was recorded as complete response (CR), partial response (PR), stable disease (SD), or progressive disease (PD) according to the RECIST Version 1.1.
To determine if loss of merlin in the current Phase I mesothelioma population was predictive of response to Compound A, merlin levels were assessed in archival tissue (FFPE) collected at screening by immunohistochemistry (IHC), and the result correlated to clinical endpoint of median progression free survival (PFS).
A custom IHC assay was developed by Mosaic laboratories, Inc, employing a rabbit polyclonal antibody (Santa Cruz Biotechnology, Inc, catalog # SC332) using a dilution of 1:1600. The antibody signal was evaluated by Envision+rabbit HRP (DAKO) detection kit, and the staining intensity (Grade 0-3+) was used to categorize merlin status (merlin positive=wildtype or merlin negative=loss of merlin) of the clinical samples tested. […]

MSTO-211H cells = experiment: Anchorage-independent growth-death assay (methylcellulose, CellTiter-Glo, 6 days); assay type: cell-based, human; conditions: for IC50: Homo sapiens
Procedure: (§1) Five human mesothelioma cell lines and two additional human lung cancer cell lines available from the ATCC were used in these studies. Cells were grown in RPMI1640 media containing 10% FBS, 1% L-glutamine, 1% sodium pyruvate under standard cell culture conditions. The mesothelioma cell lines: NCI-H2052, MSTO-211H, NCI-H28, NCI-H226, NCI-H2452, and additional lung lines: A549 and SW-1573. An additional three mesothelioma cell lines, Mero-41, Mero-82, and Mero-14, were grown under identical conditions.
(§2) The cellular response to Compound A was evaluated in an anchorage-independent cell growth assay that quantified the extent of cell growth inhibition and the net change in cell population. The assay was performed in black, clear bottom, untreated 384-well plates (Greiner #781096). It is important to use either non-tissue culture treated or Low Attachment plates to prevent cells from adhering to the plate during the assay. In brief, the assay was performed as described below.
(§3) A 1% (weight/volume) stock of methylcellulose solution was prepared by dissolving 5 grams of sterilized methylcellulose (Sigma #M0512) in 495 mL of cell culture medium. Here, RPMI1640 media containing 10% FBS, 1% L-glutamine, 1% sodium pyruvate was added to the cooled methylcellulose that had been placed in a glass container and autoclaved to sterilize. Media can be substituted if the cells require different cell culture medium for growth. The dissolution often took a day with vigorous stirring at 4° C. maintaining sterile conditions.
(§4) Cells were plated into a 384 well plate with assay conditions of 0.65% methylcellulose (final concentration) and 1000 cells per well in a final volume of 48 μL. This was achieved by diluting cells harvested from culture and re-suspended in growth medium (dilute to 2.0833×10^4 cells/mL) with the 1% methylcellulose. The cells were mixed by inversion to distribute evenly, bubbles were dispersed and 48 μL was placed into the well with a positive displacement pipette. The plates were placed in a cell culture incubator containing 5% CO2 at 37° C.
(§5) Serial dilution of compound in DMSO was done in a 384 well plate starting with 20 μL of stock compound solution in the first column and 10 μL of DMSO in the other wells. Ten μL from the compound well was transferred into the DMSO containing well, mixed, and the serial dilution was continued with 10 μL transfers across the plate. Then, 4 μL of this DMSO diluted compound was added into wells of a new 384 well plate containing 105 μL of appropriate growth medium. This ‘compound plate’ was used to dose the assay plates containing cells in methylcellulose.
(§6) To initiate the assay, two μL from each well of the ‘compound plate’ were added to individual wells of the ‘assay plates,’ each well containing the 48 μL of cells in methylcellulose. These assay plates were placed in the cell culture incubator for 6 days. One plate was selected at random and developed with Cell TiterGlo (CTG) at the time of compound addition to represent the time equal zero (T0) plate, i.e. to represent the number of cells at the time of compound addition.
(§7) On day 6, the assay was stopped by developing the plates, placing a black sticker on bottom of each plate to block light, adding 25 μL of CTG, and incubating the plates for 20 minutes at room temperature. The plates were scanned using a luminescence protocol on the EnVision (Perkin-Elmer).
(§8) Results were expressed as a percent of the T0 value and plotted against the compound concentration. […] The cellular response was determined by fitting the concentration response curves using a 4-parameter curve fit equation and determining the concentration that inhibited growth by 50% (gIC50). The gIC50 value is the midpoint of the growth window (between T0 and growth of DMSO controls). […]

NCI-H2052 cells = experiment: as above; assay type: cell-based, human; conditions: for IC50: Homo sapiens, read-out: Growth Inhibition gIC50
Procedure: as §1, §2, §3, §4, §5, §6, §7, §8

NCI-H226 cells = experiment: as above; assay type: cell-based, human; conditions: second anchorage-independent assay, NCI-H226, merlin negative
Procedure: as §1, §2, §3, §4, §5, §6, §7, §8

Mero-41 cells = experiment: as above; assay type: cell-based, human; conditions: second anchorage-independent assay, Mero-41, merlin negative
Procedure: as §1, §2, §3, §4, §5, §6, §7, §8

Mero-82 cells = experiment: as above; assay type: cell-based, human; conditions: second anchorage-independent assay, Mero-82, merlin negative
Procedure: as §1, §2, §3, §4, §5, §6, §7, §8

Mero-14 cells = experiment: as above; assay type: cell-based, human; conditions: second anchorage-independent assay, Mero-14, merlin negative
Procedure: as §1, §2, §3, §4, §5, §6, §7, §8

[2] = system: merlin negative cell lines; experiment: Anchorage-independent growth-death assay, merlin negative cell line panel; assay type: cell-based; conditions: Homo sapiens, ALL5; second anchorage-independent assay; all 5 merlin negative cell lines; read-out: gIC50 values
Procedure: as §1
The cellular response to Compound A was evaluated in an anchorage-independent cell growth assay that quantified the extent of cell growth inhibition and the net change in cell population. The assay was performed in black, clear bottom, untreated 384-well plates (Greiner #781096). […]
as §7
Results were expressed as a percent of the T0 value and plotted against the compound concentration. […] The cellular response was determined by fitting the concentration response curves using a 4-parameter curve fit equation and determining the concentration that inhibited growth by 50% (gIC50). […]

[3] = mesothelioma patients, 26 with radiologic assessments, RECIST 1.1
[4] = second anchorage-independent assay, NCI-H2052, merlin negative
[5] = Homo sapiens, read-out: Growth Inhibition gIC50

`CONC(=O)c1ccccc1Nc1cc(Nc2cc(C)nn2C(C)C)ncc1Cl` [Compound A, 2-[(5-chloro-2-{[3-methyl-1-(1-methylethyl)-1H-pyrazol-5-yl]amino}-4-pyridinyl)amino]-N-(methyloxy)benzamide] was tested, and the “Overall median progression free survival (PFS)” value ([1]; all mesothelioma patients, 95% CI 9.7, 24.1, Kaplan-Meier) was 17.7 weeks, the “Patients with PD as best response to treatment” value [1, 3] was 9 patients and the “Patients with SD as best response to treatment” value [1, 3] was “fourteen”. The “Patients with non-CR/non-PD as best response to treatment” value [1, 3] was “three”, the “PR or CR; minor responses” value ([1]; mesothelioma patients, RECIST 1.1) was “no patients experienced a PR or CR, minor responses in some patients with mesothelioma were seen” and the “Merlin negative patients remaining on study for more than four months” value ([1]; mesothelioma, merlin negative) was “Seven of 14”. The “Median PFS in merlin negative subjects” value ([1]; mesothelioma, merlin negative, n=14, 95% CI 6.0, 29.3) was 24.1 weeks, the “Merlin positive patients remaining on study for more than four months” value ([1]; mesothelioma, merlin positive) was “three of nine” and the “Median PFS in merlin positive subjects” value ([1]; mesothelioma, merlin positive, n=9, 95% CI 7.3, undefined) was 11.4 weeks. The IC50 (MSTO-211H cells; 144 h, initial anchorage-independent assay, MSTO-211H, NF2 wild-type, merlin positive, 6 days, read-out: Growth Inhibition gIC50) was 3590 nM, the IC50 (MSTO-211H cells; second anchorage-independent assay, MSTO-211H, merlin positive, read-out: Growth Inhibition gIC50) was 10900 nM and the IC50 (MSTO-211H cells; second anchorage-independent assay, merlin positive cell line (MSTO-211H), read-out: Concentration required for 50% growth inhibition) was about 10000 nM. The “Net Pop. change Ymin-T0” value (MSTO-211H cells; initial anchorage-independent assay, MSTO-211H, NF2 wild-type, 6 days, highest concentration ~30 μM) was 343%, the “Net Population Change Ymin-T0” value (MSTO-211H cells; second anchorage-independent assay, MSTO-211H, merlin positive) was 367% and the IC50 (NCI-H2052 cells; 144 h, initial anchorage-independent assay, NCI-H2052, NF2 mutant, merlin negative, 6 days) was 186 nM. For the same compound, the IC50 (NCI-H2052 cells; [4]) was 236 nM, the “Net Pop. change Ymin-T0” value (NCI-H2052 cells; initial anchorage-independent assay, NCI-H2052, NF2 mutant, 6 days) was −3% and the “Net Population Change Ymin-T0” value (NCI-H2052 cells; [4]) was 7%. For the same compound, the IC50 (NCI-H226 cells; [5]) was 196 nM, the “Net Population Change Ymin-T0” value (NCI-H226 cells) was −18% and the IC50 (Mero-41 cells; [5]) was 54 nM. The “Net Population Change Ymin-T0” value (Mero-41 cells) was −54%, the IC50 (Mero-82 cells; [5]) was 59 nM and the “Net Population Change Ymin-T0” value (Mero-82 cells) was −22%. The IC50 (Mero-14 cells; [5]) was 63 nM, the “Net Population Change Ymin-T0” value (Mero-14 cells) was −55% and the IC50 [2] was under 250 nM.

From US9192604B2, “Method of administration and treatment” (GlaxoSmithKline Intellectual Property (No. 2) Limited, priority 2011, dated 2015)
